Usually IC50 stands for the concentration at which inhibition is half-maximal.

Assay [1] deals with A549. Briefly: Growth inhibition in NSCLC comparison line (selectivity and multidrug resistance studies). Format: cell-based, human. As to conditions: maximum 25 μM, read-out: IC50 NSCLC A-549 (sensitive). As for the experimental part: This assessment of the growth inhibitory activity of the compounds was tested in quadruplicate at a maximum concentration of 25 μM, followed by 10 serially diluted concentrations.
Compound 7e was analyzed for cancer cell growth inhibitory activity in a sensitive NSCLC cell line (A549) and a multidrug resistant lung cancer cell line (NCI-H69AR) which expresses the ABCC1 efflux pump protein. This assessment of activity tested compounds in quadruplicate at a maximum concentration of 25 μM, followed by 10 serially diluted concentrations.
A549, IEC-6, MCF-10A and 3t3 cells were harvested from 90-95% confluent cultures in 10 cm dishes, and diluted in growth media recommended by the suppliers as follows: A549 cells were cultured in RPMI-1640 medium supplemented with 5% fetal bovine serum (FBS). IEC-6 cells were obtained from ATCC and cultured in Dulbecco’s modified Eagle’s medium (DMEM) supplemented with 10% FBS and 0.1 unit/mL recombinant insulin. Swiss 3t3 cells were obtained from ATCC and cultured in DMEM supplemented with 10% FBS. MCF-10Acells were obtained from ATCC and cultured in a mixture DMEM and F12 media supplemented with 5% fetal bovine serum (FBS), 20 ng/mL recombinant epidermal growth factor, 10 µg/mL insulin, 0.5 µg/mL hydrocortisone and 100 ng/mL cholera toxin. An appropriate concentration of cells was prepared to add 1,250 cells in a volume of 25 µL per well in tissue culture treated BD 384-well microplates, then incubated overnight at 37 °C.
Compound 7e and the positive control, sunitinib, were diluted to a concentration of […] in DMSO. Concentrated dosing solutions (double the final concentration) were prepared by dilution of the DMSO stocks 1:500 in growth medium. Two-fold serial dilutions were then prepared in medium containing 0.2% DMSO to maintain a constant concentration of vehicle throughout the concentration range of the compound. Each of these was added in equal volume (25 µL) to four wells on each cell assay plate, along with vehicle control. The highest concentration for serial dilutions of the positive control sunitinib was prepared exactly as the experimental compounds. […]
At the end of the treatment period, assay plates were allowed to cool to RT for 10 min prior to addition of 25 µL per well Promega CellTiterGlo reagent, followed by an additional 10 min incubation at RT. The resulting luminescence was quantitated using a Molecular Devices Spectramax Paradigm.Percent growth inhibition was calculated using equation (1). The potency of compounds was determined using the non-linear dose response algorithm (four-parameter logistic fit) with GraphPad Prism 5 software. […]
Compound 7e was diluted to a concentration of 25 µM in DMSO. […] The resulting luminescence was quantitated using a Molecular Devices Spectramax Paradigm. […]

Assay [2] has as its system phosphorylated Rb protein in A549 cells. The experiment in a line: Rb phosphorylation (immunofluorescent imaging). Format: cell-based. As to conditions: Homo sapiens, read-out: IC50 for reduction in Rb phosphorylation. As to the method:
Compound 7e was analyzed for effects on various aspects of cell cycle progression in human cancer cells. These studies were carried out using cells derived from lung adenocarcinoma (A549). This follow-up assessment of activity tested compounds used immunofluorescent imaging of phosphorylated Rb protein and the total DNA content of each cell to determine the cell cycle phase. The ability of the test compounds to affect the cell cycle and Rb phosphorylation was tested over a range of concentrations from less than 100 nM to 50 μM.
Fig 5 Dose-dependent changes in cell cycle. Distribution of cells within the cell cycle as well as total cell numbers were quantitated by fluorescent staining of nuclear DNA with DAPI. Phosphorylated Rb protein was detected by indirect immunofluorescence followed by automated image acquisition and analysis. […] All IC50 values are given under one unlabelled substance, with the y-axis title of each plot written in front as the measure.
A549 cells were harvested from a 90% confluent 10 cm dish and diluted in growth medium. An appropriate concentration of cells were prepared to add 5,000 cells in a volume of 100 µL per well in tissue culture treated PerkinElmer optical bottom ViewPlate microplates, then incubated overnight at 37°C. The following day, compound 7e and the positive control, sunitinib, were diluted in DMSO to concentrations 1000-fold above the maximum tested concentration.
Concentrated dosing solutions of twice the final concentration were prepared by dilution of the DMSO stocks 1:500 in growth media. Three-fold dilutions of each dosing medium were then prepared in medium containing 0.2% DMSO to maintain a constant concentration of vehicle throughout the concentration range of each compound. Each of these was added in equal volume (100 µL) to each well on the assay plate, along with the vehicle control. One plate of cells was incubated with the compounds for a further 24 h, and a separate plate was incubated with the compounds for 48 h.
At the end of the respective treatment periods, 150 µL per well of neutral buffered formalin fixative (10% paraformaldehyde) was rapidly added to each plate and incubated at room temperature for 20 min. […] Phosphorylated Rb protein (p-Rb) was detected by 1 h incubation with anti-p-Rb rabbit monoclonal antibody (Cell Signaling #8516) diluted 1:1600 in antibody dilution buffer (1% bovine serum albumin and 0.3% Triton X-100 in PBS). […] Anti-Phospho Ser807/811-Rb antibody (Cell Signalling cat #8516) was detected by 1 h incubation with goat anti-rabbit AlexaFluor 488 conjugate (InVitrogen cat #A-11008) diluted 1:500 in antibody dilution buffer. […] Fluorescent micrographs were analyzed using Molecular Devices MetaXpress multi-wavelength scoring image analysis program to quantitate Rb phosphorylation. […]

Each structure is given as a SMILES string. Where two headings read alike, the source gives them in different places.

Regarding `CCN(CC)CCNC(=O)c1c(C)[nH]c(/C=C2\C(=O)Nc3ccc(F)cc32)c1C` [Sunitinib, sunitinib, reference compound], the IC50 amounted to 3100 nM in assay [1] (72 h); 3060 nM in assay [1] (Homo sapiens, A549, 72 h); 3160 nM in assay [2] (A549, 24 h); 14000 nM in assay [2] (A549, 48 h).

Consider `O=C1Nc2ccc(Br)cc2C1=NN=C1C(=O)N(Cc2ccccc2)c2ccccc21` [Compound 7e, 1-Benzyl-3-((5-bromo-2-oxoindolin-3-ylidene)hydrazono)indolin-2-one], for which the half-maximal inhibitory concentration (IC50) in assay [1] (72 h) is 1600 nM; in assay [1] (Homo sapiens, A549, 72 h), 1560 nM; in assay [2] (A549, 24 h), 2550 nM; in assay [2] (A549, 48 h), 2470 nM.

The values above are taken from paper PMC5526551, “New hydrazonoindolin-2-ones: Synthesis, exploration of the possible anti-proliferative mechanism of action and encapsulation into PLGA microspheres” (PLoS ONE, 2017).
